Experimental data reported in ChEMBL document CHEMBL1201862, “PubChem BioAssay data set” (2004).
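Grown in 96-well plates, cells were treated for 48 hours with each compound at five concentrations. Insufficient inhibition: endpoint recorded as highest concentration tested. GI50 = concentration required for 50% inhibition of growth.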 Activity calls are given as the source filed them. Rule as the data show it: active = GI50 up to about 1.1 µM and inactive = higher.

Tests used:
Assay in all cases: NCI anticancer screen, dose series, 48 h
ACHN = tested on: ACHN
OVCAR-8 = tested on: OVCAR-8
SR = tested on: SR
COLO 205 = tested on: COLO 205
HCC 2998 = tested on: HCC 2998
OVCAR-4 = tested on: OVCAR-4
K562 = tested on: K562
SN12C = tested on: SN12C
OVCAR-3 = tested on: OVCAR-3
786-0 = tested on: 786-0
KM-20L2 = tested on: KM-20L2
UO-31 = tested on: UO-31
MOLT-4 = tested on: MOLT-4
HOP-62 = tested on: HOP-62
NCI-H23 = tested on: NCI-H23
U-251 = tested on: U-251
SW-620 = tested on: SW-620
SF-268 = tested on: SF-268
HOP-18 = tested on: HOP-18
DMS-114 = tested on: DMS-114
M19-MEL = tested on: M19-MEL
KM12 = tested on: KM12
IGROV-1 = tested on: IGROV-1
NCI-H522 = tested on: NCI-H522
SNB-78 = tested on: SNB-78
EKVX = tested on: EKVX
A498 = tested on: A498
SK-MEL-2 = tested on: SK-MEL-2
OVCAR-5 = tested on: OVCAR-5
RXF 631 = tested on: RXF 631
SF-295 = tested on: SF-295
A549 = tested on: A549
SNB-19 = tested on: SNB-19
HT-29 = tested on: HT-29
SK-MEL-28 = tested on: SK-MEL-28
UACC-257 = tested on: UACC-257
NCI-H460 = tested on: NCI-H460
SF-539 = tested on: SF-539
HL-60 = tested on: HL-60
NCI-H226 = tested on: NCI-H226
LOX IMVI = tested on: LOX IMVI
LXFL 529 = tested on: LXFL 529
SNB-75 = tested on: SNB-75
DLD-1 = tested on: DLD-1
HOP-92 = tested on: HOP-92
HCT-116 = tested on: HCT-116
RPMI-8226 = tested on: RPMI-8226
Malme-3M = tested on: Malme-3M
HCT-15 = tested on: HCT-15
TK-10 = tested on: TK-10

CC1(C)C2CCC13CS(=O)(=O)N1O[C@]13C(=O)O2 (stereo not given in full)
GI50 (ACHN): > 100 µM (inactive) | GI50 (OVCAR-8): > 100 µM (inactive) | GI50 (SR): > 100 µM (inactive) | GI50 (COLO 205): > 100 µM (inactive) | GI50 (HCC 2998): > 100 µM (inactive) | GI50 (OVCAR-4): > 100 µM (inactive) | GI50 (K562): > 100 µM (inactive) | GI50 (SN12C): > 100 µM (inactive) | GI50 (OVCAR-3): > 100 µM (inactive) | GI50 (786-0): > 100 µM (inactive) | GI50 (KM-20L2): > 100 µM (inactive) | GI50 (UO-31): > 100 µM (inactive) | GI50 (MOLT-4): > 100 µM (inactive) | GI50 (HOP-62): > 100 µM (inactive) | GI50 (NCI-H23): > 100 µM (inactive) | GI50 (U-251): > 100 µM (inactive) | GI50 (SW-620): > 100 µM (inactive) | GI50 (SF-268): > 100 µM (inactive) | GI50 (HOP-18): > 100 µM (inactive) | GI50 (DMS-114): > 100 µM (inactive) | GI50 (M19-MEL): > 100 µM (inactive) | GI50 (KM12): > 100 µM (inactive) | GI50 (IGROV-1): > 100 µM (inactive) | GI50 (NCI-H522): > 100 µM (inactive) | GI50 (SNB-78): > 100 µM (inactive) | GI50 (EKVX): > 100 µM (inactive) | GI50 (A498): > 100 µM (inactive) | GI50 (SK-MEL-2): > 100 µM (inactive) | GI50 (OVCAR-5): > 100 µM (inactive) | GI50 (RXF 631): > 100 µM (inactive) | GI50 (SF-295): > 100 µM (inactive) | GI50 (A549): > 100 µM (inactive) | GI50 (SNB-19): > 100 µM (inactive) | GI50 (HT-29): > 100 µM (inactive) | GI50 (SK-MEL-28): > 100 µM (inactive) | GI50 (UACC-257): > 100 µM (inactive) | GI50 (NCI-H460): > 100 µM (inactive) | GI50 (SF-539): > 100 µM (inactive) | GI50 (HL-60): > 100 µM (inactive) | GI50 (NCI-H226): > 100 µM (inactive) | GI50 (LOX IMVI): > 100 µM (inactive) | GI50 (LXFL 529): > 100 µM (inactive) | GI50 (SNB-75): 60.8 µM (inactive) | GI50 (DLD-1): > 100 µM (inactive) | GI50 (HOP-92): > 100 µM (inactive) | GI50 (HCT-116): > 100 µM (inactive) | GI50 (RPMI-8226): > 100 µM (inactive) | GI50 (Malme-3M): > 100 µM (inactive) | GI50 (HCT-15): > 100 µM | GI50 (TK-10): > 100 µM (inactive)
